Test results from patent US20090023759A1, “Quinazoline Derivatives as Inhibitors of EGF and/or erbB2 Receptor Tyrosine Kinase” (priority 2005, published 2009).
pIC50: −log10 of the molar value.

Legend:
[1] = molecular target: T1, erbB2 tyrosine kinase (Homo sapiens, UniProt P04626); test: Test (a) protein tyrosine kinase phosphorylation assay, erbB2; type: biochemical; details: ATP at Km concentration; read-out: IC50 Test (a): Inhibition of erbB2 tyrosine kinase protein phosphorylation
T1 construct: Recombinant intracellular fragments of EGFR, erbB2 and erbB4; made in house; host or cells: baculovirus/Sf21 insect cells (cleared lysate used)
Method: (§1) a) Protein Tyrosine Kinase phosphorylation Assays
(§2) This test measures the ability of a test compound to inhibit the phosphorylation of a tyrosine containing polypeptide substrate by EGFR, erbB2 and erbB4 tyrosine kinase enzyme.
(§3) Recombinant intracellular fragments of EGFR, erbB2 and erbB4 (accession numbers X00588, X03363 and L07868 respectively) were cloned and expressed in the baculovirus/Sf21 system. […]
(§4) Constitutive kinase activity of these recombinant proteins was determined by their ability to phosphorylate a synthetic peptide (made up of a random co-polymer of Glutamic Acid, Alanine and Tyrosine in the ratio of 6:3:1). […]
(§5) The immobilised phospho-peptide product of the reaction was detected by immunological methods. […] After further washing, HRP activity in each well of the plate was measured colorimetrically using 22′-Azino-di-[3-ethylbenzthiazoline sulfonate (6)]diammonium salt crystals (ABTS™ from Roche) as a substrate.
(§6) Quantification of colour development and thus enzyme activity was achieved by the measurement of absorbance at 405 nm on a Molecular Devices ThermoMax microplate reader. Kinase inhibition for a given compound was expressed as an IC50 value. […] The range of phosphorylation was calculated from the positive (vehicle plus ATP) and negative (vehicle minus ATP) control values.

[2] = molecular target: T2, EGFR tyrosine kinase (Homo sapiens, UniProt P00533); test: Test (a) protein tyrosine kinase phosphorylation assay, EGFR; type: biochemical; details: ATP at Km concentration; read-out: IC50 Test (a): Inhibition of EGFR tyrosine kinase protein phosphorylation
T2 construct: Recombinant intracellular fragments of EGFR, erbB2 and erbB4; made in house; host or cells: baculovirus/Sf21 insect cells (cleared lysate used)
Method: as §1, §2, §3, §4, §5, §6

[3] = molecular target: T3, erbB2 in a MCF7 derived cell line (Clone 24 cells) (Homo sapiens, UniProt P04626); test: Test (c) Clone 24 phospho-erbB2 cell assay; type: cell-based; details: 4 hours with compound, read-out: IC50 Test (c): Inhibition of erbB2 tyrosine kinase protein phosphorylation
T3 construct: a cell line that overexpresses full length wild type erbB2 protein; expressed in transfected cells
Method: c) Clone 24 Phospho-erbB2 Cell Assay
This immunofluorescence end point assay measures the ability of a test compound to inhibit the phosphorylation of erbB2 in a MCF7 (breast carcinoma) derived cell line which was generated by transfecting MCF7 cells with the full length erbB2 gene using standard methods to give a cell line that overexpresses full length wild type erbB2 protein (hereinafter ‘Clone 24’ cells).
Clone 24 cells were cultured in Growth Medium (phenol red free Dulbecco's modified Eagle's medium (DMEM) containing 10% foetal bovine serum, 2 mM glutamine and 1.2 mg/ml G418) in a 7.5% CO2 air incubator at 37° C. […] Cell density was measured using a haemocytometer and viability was calculated using Trypan Blue solution before being further diluted in Growth Medium and seeded at a density of 1×10^4 cells per well (in 100 μl) into clear bottomed 96 well plates (Packard, No. 6005182). […]
Immunostaining was performed at room temperature. […] Plates were analysed within six hours of completing the immunostaining.
The Fluorescence signal is each well was measured using an Acumen Explorer Instrument (Acumen Bioscience Ltd.), a plate reader that can be used to rapidly quantitate features of images generated by laser-scanning. […]

T2 sequence (P00533 669-1210 limits assumed): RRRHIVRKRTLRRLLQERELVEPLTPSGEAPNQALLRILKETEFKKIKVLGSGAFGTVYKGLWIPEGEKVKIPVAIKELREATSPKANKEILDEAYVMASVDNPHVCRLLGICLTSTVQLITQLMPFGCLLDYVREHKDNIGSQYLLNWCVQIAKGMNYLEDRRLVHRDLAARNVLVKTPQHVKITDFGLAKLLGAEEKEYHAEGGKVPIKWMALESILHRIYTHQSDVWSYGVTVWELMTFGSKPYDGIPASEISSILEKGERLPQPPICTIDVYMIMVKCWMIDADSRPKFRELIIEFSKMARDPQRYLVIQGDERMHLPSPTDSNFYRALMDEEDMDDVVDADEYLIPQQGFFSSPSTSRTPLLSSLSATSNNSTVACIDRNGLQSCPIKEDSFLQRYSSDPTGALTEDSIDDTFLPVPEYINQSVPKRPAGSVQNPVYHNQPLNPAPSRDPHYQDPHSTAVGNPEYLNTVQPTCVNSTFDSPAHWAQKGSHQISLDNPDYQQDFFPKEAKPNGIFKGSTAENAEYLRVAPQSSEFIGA
T1 sequence (P04626 676-1255 limits assumed): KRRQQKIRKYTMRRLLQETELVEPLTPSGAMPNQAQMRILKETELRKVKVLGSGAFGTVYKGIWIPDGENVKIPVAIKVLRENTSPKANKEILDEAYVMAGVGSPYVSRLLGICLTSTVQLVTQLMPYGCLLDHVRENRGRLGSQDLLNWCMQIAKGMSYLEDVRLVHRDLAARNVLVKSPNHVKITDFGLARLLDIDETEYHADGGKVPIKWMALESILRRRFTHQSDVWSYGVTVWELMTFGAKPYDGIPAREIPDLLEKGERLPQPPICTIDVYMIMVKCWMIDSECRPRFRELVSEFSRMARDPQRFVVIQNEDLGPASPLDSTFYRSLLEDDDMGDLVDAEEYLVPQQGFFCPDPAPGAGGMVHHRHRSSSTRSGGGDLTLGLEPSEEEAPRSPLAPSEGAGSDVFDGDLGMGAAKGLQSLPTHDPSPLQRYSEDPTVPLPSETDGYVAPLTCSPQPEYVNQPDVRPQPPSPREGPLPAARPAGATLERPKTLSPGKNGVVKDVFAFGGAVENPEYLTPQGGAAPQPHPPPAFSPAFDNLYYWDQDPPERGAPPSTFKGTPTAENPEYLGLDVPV
T3 sequence (P04626 23-1255): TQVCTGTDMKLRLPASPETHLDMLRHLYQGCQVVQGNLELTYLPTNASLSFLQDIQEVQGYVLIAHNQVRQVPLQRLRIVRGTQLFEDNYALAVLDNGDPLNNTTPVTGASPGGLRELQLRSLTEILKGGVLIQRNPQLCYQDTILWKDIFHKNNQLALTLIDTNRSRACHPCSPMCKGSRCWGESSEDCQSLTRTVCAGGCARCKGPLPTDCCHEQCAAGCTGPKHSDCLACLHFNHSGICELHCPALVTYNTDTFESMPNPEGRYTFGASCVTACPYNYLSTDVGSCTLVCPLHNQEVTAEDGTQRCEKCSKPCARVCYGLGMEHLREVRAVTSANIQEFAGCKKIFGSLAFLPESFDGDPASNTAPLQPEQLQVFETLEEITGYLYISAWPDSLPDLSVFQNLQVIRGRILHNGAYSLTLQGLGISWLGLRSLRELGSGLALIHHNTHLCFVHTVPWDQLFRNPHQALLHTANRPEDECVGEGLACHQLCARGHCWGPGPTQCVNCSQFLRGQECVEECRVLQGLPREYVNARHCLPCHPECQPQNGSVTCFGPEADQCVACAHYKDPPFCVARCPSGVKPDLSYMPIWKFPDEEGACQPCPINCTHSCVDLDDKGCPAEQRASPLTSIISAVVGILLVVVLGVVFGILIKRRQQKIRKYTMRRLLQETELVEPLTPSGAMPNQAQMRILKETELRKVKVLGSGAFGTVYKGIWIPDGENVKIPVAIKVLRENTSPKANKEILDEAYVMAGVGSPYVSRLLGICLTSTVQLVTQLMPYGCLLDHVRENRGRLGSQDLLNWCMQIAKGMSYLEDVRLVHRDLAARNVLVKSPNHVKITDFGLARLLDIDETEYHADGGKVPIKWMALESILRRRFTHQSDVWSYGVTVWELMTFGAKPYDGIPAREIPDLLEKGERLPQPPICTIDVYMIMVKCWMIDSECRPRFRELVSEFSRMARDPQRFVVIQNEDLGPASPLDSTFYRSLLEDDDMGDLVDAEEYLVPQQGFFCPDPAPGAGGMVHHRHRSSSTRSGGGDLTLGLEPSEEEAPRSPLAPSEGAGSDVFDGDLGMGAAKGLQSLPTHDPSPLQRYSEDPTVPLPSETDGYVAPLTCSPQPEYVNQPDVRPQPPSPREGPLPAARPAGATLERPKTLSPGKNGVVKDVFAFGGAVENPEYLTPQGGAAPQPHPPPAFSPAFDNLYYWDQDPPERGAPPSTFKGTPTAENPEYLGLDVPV

| pIC50 [1] | pIC50 [2] | pIC50 [3] | SMILES |
| --- | --- | --- | --- |
| 7.15 | 6.11 | 6.00 | C[C@H](CN(C)C(=O)CO)Oc1cccc2ncnc(Nc3ccc4c(ccn4Cc4ccccn4)c3)c12 [Example 1, 2-Hydroxy-N-methyl-N-{(2R)-2-[(4-{[1-(pyridin-2-ylmethyl)-1H-indol-5-yl]amino}quinazolin-5-yl)oxy]propyl}acetamide] |
| 8.30 | 7.20 | 8.70 | C[C@H](COc1cccc2ncnc(Nc3ccc4c(ccn4Cc4ccccn4)c3)c12)N(C)C(=O)CO [Example 2, 2-Hydroxy-N-methyl-N-{(R)-1-methyl-2-[4-(1-pyridin-2-ylmethyl-1H-indol-5-ylamino)-quinazolin-5-yloxy]-ethyl}-acetamide] |
